What was measured:
[1] = system: classical swine fever virus (CSFV) strain Alfort 187; experiment: microbe, parasite or virus in culture; type: cell-based; conditions: PK-15, in Sus scrofa, 48 h
[2] = system: Bovine viral diarrhea (BVD) virus; experiment: Anti-BVDV CPE inhibition assay in MDBK cells; conditions: for SI (selectivity index, ratio of CC50 and EC50): CC50/EC50, MDBK cells, BVD virus
[3] = Cytotoxicity in MDBK cells (no BVD virus added); conditions: bovine, MDBK cells (Madin-Darby bovine kidney), no virus added
[4] = system: BVDV type 2 strain 1373; conditions: 5 mg/kg i.v. 2x daily; for Animals showing signs of dehydration / Samples virus isolation positive for BVDV in total / Adverse side effects on serial complete blood cell counts or serum chemistry panels / Period in which leukopenia (<5000 leukocytes/μL) was seen / Adverse drug reactions on daily clinical monitoring / Clinical scores compared to calves receiving diluent only: 10 days; for Buffy coat samples virus isolation positive: Days 6-10, 20 samples per group; for Samples virus isolation positive for BVDV in total: all sample types and time points; for Nasal swab samples virus isolation positive: by Day 12, 28 samples per group; for Adverse side effects on serial complete blood cell counts or serum chemistry panels / Period in which leukopenia (<5000 leukocytes/μL) was seen / Adverse drug reactions on daily clinical monitoring: calves; for Adverse drug reactions on daily clinical monitoring: Day 0 to Day 28; for Clinical scores compared to calves receiving diluent only: composite of dehydration, appearance, appetite, diarrhea
[5] = system: BVDV type 1 strain SD1; conditions: 2 mg/kg i.v. 3x daily
[6] = system: MDBK cells (Madin-Darby bovine kidney); experiment: Cytotoxicity in MDBK cells (no BVD virus added); conditions: MDBK cells, no virus, 50% toxic effects
[7] = Bovine viral diarrhea virus isolates and strains, MDBK, in Bos taurus, 96 h

## Cc1ccc2nc(Cn3ccc4nc(-c5cnn(C)c5C)nc-4c3)sc2c1 [CPD-1, 2-((2-(1,5-dimethyl-1H-pyrazol-4-yl)-5H-imidazo[4,5-c]pyridin-5-yl)methyl)-6-methylbenzo[d]thiazole]
[1]
  EC50: 300 ± 100 nM
[2]; [7]
  EC50: 13 ± 5 nM
[2]
  SI (selectivity index, ratio of CC50 and EC50): 17769
[3]
  CC50 at 4 days: 231000 nM

## Cc1c(-c2nc3ccn(Cc4cc(-c5cc(F)ccc5F)no4)cc-3n2)cnn1C [CPD-7, 3-(2,5-difluorophenyl)-5-((2-(1,5-dimethyl-1H-pyrazol-4-yl)-5H-imidazo[4,5-c]pyridin-5-yl)methyl)isoxazole]
[1]
  EC50: 1300 ± 500 nM
[4]
  Animals showing signs of dehydration: None
  Buffy coat samples virus isolation positive: 50%
  Samples virus isolation positive for BVDV in total: 28 samples
  Nasal swab samples virus isolation positive: 29%
  Adverse side effects on serial complete blood cell counts or serum chemistry panels: No evidence of adverse side effects
  Period in which leukopenia (<5000 leukocytes/μL) was seen: 6 to 12 days
  Adverse drug reactions on daily clinical monitoring: No signs of adverse drug reactions were observed
  Clinical scores compared to calves receiving diluent only: attenuated clinical scores
[2]; [7]
  EC50: 53 ± 25 nM
[2]
  SI (selectivity index, ratio of CC50 and EC50): 4000
[3]
  CC50 at 4 days: 212000 nM

## Cc1ccc2nc(Cn3ccc4nc(-c5cn(C)nc5C)nc-4c3)sc2c1 [CPD-10, 2-((2-(1,3-dimethyl-1H-pyrazol-4-yl)-5H-imidazo[4,5-c]pyridin-5-yl)methyl)-6-methylbenzo[d]thiazole]
[1]
  EC50: 4300 ± 1900 nM
[4]
  Animals showing signs of dehydration: None
  Buffy coat samples virus isolation positive: 55%
  Samples virus isolation positive for BVDV in total: 32 samples
  Nasal swab samples virus isolation positive: 43%
  Adverse side effects on serial complete blood cell counts or serum chemistry panels: No evidence of adverse side effects
  Period in which leukopenia (<5000 leukocytes/μL) was seen: 6 to 8 days
  Adverse drug reactions on daily clinical monitoring: No signs of adverse drug reactions were observed
  Clinical scores compared to calves receiving diluent only: attenuated clinical scores
[2]; [7]
  EC50: 80 ± 32 nM
[2]
  SI (selectivity index, ratio of CC50 and EC50): 2888
[3]
  CC50 at 4 days: 231000 nM

## Cc1nc(Cn2ccc3nc(-c4ccccc4F)nc-3c2)sc1-c1ccccc1 [CPD-29, 2-((2-(2-fluorophenyl)-5H-imidazo[4,5-c]pyridin-5-yl)methyl)-4-methyl-5-phenylthiazole]
[1]
  EC50: 2800 ± 1400 nM
[2]; [7]
  EC50: 257 ± 107 nM
[2]
  SI (selectivity index, ratio of CC50 and EC50): >195
[3]
  CC50 at 4 days: > 50000 nM

## Fc1ccc(OC(F)(F)F)cc1-c1nc2ccn(Cn3nnc4ccccc43)cc-2n1 [CPD-40, 1-((2-(2-fluoro-5-(trifluoromethoxy)phenyl)-5H-imidazo[4,5-c]pyridin-5-yl)methyl)-1H-benzo[d][1,2,3]triazole]
[1]
  EC50: 5900 nM
[2]; [7]
  EC50: 89 ± 18 nM
[2]
  SI (selectivity index, ratio of CC50 and EC50): 539
[3]
  CC50 at 4 days: 48000 nM

## Fc1ccccc1-c1cc2ccn(Cn3nnc4ccccc43)cc-2n1 [Compound I, 1-{[2-(2-fluorophenyl)-6H-pyrrolo[2,3-c]pyridin-6-yl]methyl}-1H-benzotriazole]
[5]; 7 days, Day 14
  Antibody titre of seroconverted calf on Day 14: 16
[5]; 7 days, Day 14 post challenge
  Calves seroconverted (anti-BVDV neutralizing antibodies) by Day 14: 1 out of 5
[5]; 7 days, Day 28
  Average anti-BVDV neutralising antibody titre on Day 28: 64
[5]; calves, 7 days, Day 0, 7, 14, 21, 28
  Haematology and clinical chemistry versus control group: did not reveal any difference between both treatment groups
[5]; calves, 7 days, Day 0 to Day 28
  Adverse drug reactions on daily clinical monitoring: No signs of adverse drug reactions were observed
[5]; calves, Day 0 to Day 6
  BVDV virus isolation from buffy coat samples during treatment: could not be detected
[2]; [7]
  EC50: 9 ± 8 nM
[2]
  SI (selectivity index, ratio of CC50 and EC50): 2444
[3]
  CC50 at 4 days: 22000 nM

## OCc1ccccc1-c1cc2ccn(Cn3nnc4ccccc43)cc-2n1 [Compound V, [2-(6-((1H-Benzotriazol)-1-yl)methyl-6H-pyrrolo[2,3-c]pyridin-2-yl)-phenyl]-methanol]
[2]; BVD virus approx. 100 TCID50, MDBK cells, four days, 50% inhibition of CPE
  EC50: 81 ± 1 nM
[6]
  CC50: > 50000 nM

## Cc1ccc2nc(Cn3ccc4nc(-c5ccccc5CO)cc-4c3)[nH]c2c1 [XXXIII, [2-[5-[(6-methyl-1H-benzimidazol-2-yl)methyl]pyrrolo[3,2-c]pyridin-2-yl]phenyl]methanol]
[2]; [7]
  EC50: 1900 ± 102 nM
[2]
  SI (selectivity index, ratio of CC50 and EC50): >26
[3]
  CC50 at 4 days: > 50000 nM

From patent US12577242B2, “Pyrrolopyridine and imidazopyridine antiviral compounds” (KATHOLIEKE UNIVERSITEIT LEUVEN, priority 2020, dated 2026)
